This is an account of results in patent US4031211A, “Adriamycin esters, their preparation and use” (priority 1975, dated 1977).

One data set has as its system Ascites sarcoma 180. Put plainly: Antitumor effect on ascites sarcoma 180 in mice. The settings on record: for LTS / TC: Table 5, ip, day 1. As for the experimental part: (§1) The compounds according to the invention were tested on several in vitro systems and experimental mouse tumors, in comparison with adriamycin.
In the next data set the test system is L 1210 leukemia. Put plainly: Antitumor effect on L 1210 leukemia in mice. The settings on record: Table 5, ip, day 1. How it is done: as §1
The next data set concerns Gross leukemia. Put plainly: Antitumor effect on Gross leukemia in mice. As for the experimental part: as §1
The next data set concerns Moloney sarcoma virus. Nature of the data set: Inhibition of Moloney sarcoma virus-induced foci in mouse embryo fibroblasts. The class given is cell-based. The settings on record: text on Table 6, in vitro. How it is done: ^2 Inhibition of Moloney sarcoma virus-induced foci in mouse embryo
fibroblasts proliferation (treatment per 72 hours)

Data set [1] has as its system experimental mouse tumors. Put plainly: Antitumor/therapeutic activity and toxicity in experimental mouse tumors, overall statements. The class given is in vivo.
Where [2] appears, read: Table 5, first experiment, iv, days 1,2,3, 6 mg./kg.

As to `CCCCCCCCCCCC(=O)OCC(=O)OCC(=O)C1(O)Cc2c(O)c3c(c(O)c2C(OC2CC(N)C(O)C(C)O2)C1)C(=O)c1c(OC)cccc1C3=O.Cl` (stereo not shown) [adriamycin-14-0-lauroyl glycolate, Adriamycin-14-0-Lauroyl Glycolate Hydrochloride], in the data set with Ascites sarcoma 180, the “number of long term survivors compared with adriamycin” value is “higher number of long term survivors”. Also, the LTS in the data set on Ascites sarcoma 180 (2 mg./kg.) is 4/10; in the data set on Ascites sarcoma 180 (4 mg./kg.), 8/10; in the data set on L 1210 leukemia (16 mg./kg.) it was 1/10; in the data set on Gross leukemia (setting [2]) it was 2/10. In addition, the TC with Ascites sarcoma 180 (2 mg./kg.) was determined as 436%; in the data set on Ascites sarcoma 180 (4 mg./kg.), 493%; in the data set on Ascites sarcoma 180 (8 mg./kg.), 385%; in the data set on Ascites sarcoma 180 (16 mg./kg.), 242%; in the data set with L 1210 leukemia (2 mg./kg.), 135%; in the data set with L 1210 leukemia (4 mg./kg.) it was 141%. Further, the TC in the data set on L 1210 leukemia (8 mg./kg.) was determined as 165%; with L 1210 leukemia (16 mg./kg.), 200%; in the data set with Gross leukemia (Table 5, first experiment, iv, days 1,2,3, 4.5 mg./kg.) it was 136%; in the data set on Gross leukemia (setting [2]), 257%; in the data set on Gross leukemia (Table 5, first experiment, iv, days 1,2,3, 7.5 mg./kg.), 221%; with Gross leukemia (Table 5, first experiment, iv, days 1,2,3, 9 mg./kg.), 128%. Moreover, the TC with Gross leukemia (Table 5, second experiment, iv, days 1,2,3, 6 mg./kg.) is 193%; in the data set with Gross leukemia (Table 5, second experiment, iv, days 1,2,3, 7.5 mg./kg.) it was 214%. Besides, in the data set with Gross leukemia, the “increase of the median survival time compared with adriamycin” value is “higher increase of the median survival time than does adriamycin”. The “activity on Moloney Sarcoma Virus” value with Moloney sarcoma virus is recorded as “most active among all of them”. In data set [1], the “toxicity compared with adriamycin” value is “less toxic than adriamycin”.
